This note sets out measurements from US12077607B2, “Functional and therapeutic effects of PAR4 cleavage by cathepsin G” (UNIVERSITY OF UTAH RESEARCH FOUNDATION, priority 2021, dated 2024).

The subject of data set [1] is dog washed platelets. The data set can be described thus: Platelet aggregation of dog washed platelets. In kind it is cell-based. The note with it: 1 U/mL human thrombin, 1 μM human CatG or 1 mM RA-11mer. From the text:
(§1) Animal studies. Mouse platelets were isolated as previously described from C57BL/6 mice (Denorme et al., Blood. 2020; 135(6):429-440). Dog platelets were isolated from whole blood drawn into ACD using a similar isolation procedure as for human platelets. All animal studies were approved by the University of Utah Institutional Animal Care and Use Committee (18-10012).
(§2) Platelet and neutrophil isolation. Platelets and neutrophils were isolated as previously described (Yost et al., J Clin Invest. 2016; 126(10):3783-3798). Platelet isolation from dogs, rats and mice was approved by the IACUC. Platelet activation and aggregation were performed as previously described (Manne et al., Blood. 2020; 136(11): 1317-1329).
(§3) Platelet isolation, aggregation, and activation. Human washed platelets were prepared and resuspended in Tyrode's Buffer at 2×10^8/mL as described (Edelstein et al., Nat Med. 2013; 19(12):1609-1616). For human and dog platelet comparisons, platelets were prepared using a modified human platelet protocol with final concentrations of […] (Cayman Chemical, Ann Arbor, MI, USA) used during centrifugation steps. Centrifugations after Tyrode's washes was decreased to 1,250×g as described in Cremer et al., PLOS One. 2019; 14(11): e0224891. Platelet aggregation was measured under stirring conditions at 37° C. using a PAP-8E aggregometer after treatment with the following agonists: arachidonic acid (Bio/Data Corporation, Horsham, PA, USA), cathepsin G, elastase, proteinase 3 (Athens Research Group), α-thrombin (Sigma, St. Louis, MO, USA), PAR-1 peptide (SFLLRN) (GL Biochem, China). P-selectin and PAC-1 were measured as previously described (Yee et al., J Thromb Haemost. 2006; 4(9):2043-2050; Tourdot et al., Arterioscler Thromb Vasc Biol. 2014; 34(12):2644-2650).

Data set [2] deals with washed platelets. The data set can be described thus: Platelet activation by flow cytometry (PAC-1 binding, P-selectin). The data set is classed as cell-based, human. The note with it: 1 mM peptide vs buffer; washed platelets. How it is done: as §3
(§4) GYPGQV-NH2 (SEQ ID NO: 5), RALLLGWVPTR-NH2 (SEQ ID NO: 1), ALLLGWVPTR-NH2 (SEQ ID NO: 2), RALLLG-NH2 (SEQ ID NO: 4). Peptides were synthesized by BIOMATIK (Wilmington, DE, USA) at similar purities. All peptides were suspended in 50% DMSO and 50% ethanol. To measure platelet activation, washed platelets were stimulated with various concentrations of the peptide in the presence of CD41-APC, P-selectin (PE) and PAC-1 (FITC) for 15 minutes at 37° C. and then fixed with FACS Lysis Buffer. Samples were immediately run on a Cytoflex flow cytometer. In some experiments, platelets were stimulated with peptides and platelet aggregation performed as described above. Platelet calcium flux was induced by RALLLGWVPTR (2 mM; SEQ ID NO: 1), CatG (500 nM), ALLLGWVPTR (2 mM; SEQ ID NO: 2) or tyrodes buffer and monitored as described above.

Data set [3] addresses T1, WT human PAR4 (hPAR4) (Homo sapiens, UniProt Q96RI0).
T1 construct: Flag; expressed in transfected cells; host or cells: HEK293T/17 (ATCC CRL-11268)
T1 sequence (Q96RI0 18-385): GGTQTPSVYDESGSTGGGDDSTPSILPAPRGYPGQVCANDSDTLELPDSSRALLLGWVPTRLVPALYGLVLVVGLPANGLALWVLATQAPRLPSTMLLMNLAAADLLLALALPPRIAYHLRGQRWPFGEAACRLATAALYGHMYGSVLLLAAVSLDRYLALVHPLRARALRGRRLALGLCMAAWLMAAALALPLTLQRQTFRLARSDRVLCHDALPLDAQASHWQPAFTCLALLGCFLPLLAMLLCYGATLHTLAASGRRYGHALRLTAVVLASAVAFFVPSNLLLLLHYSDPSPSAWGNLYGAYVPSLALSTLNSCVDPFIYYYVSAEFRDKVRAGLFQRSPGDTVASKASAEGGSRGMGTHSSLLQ
The data set can be described thus: PAR4 calcium flux assay in HEK293T/17 cells expressing WT PAR4. The conditions noted are these: 1.5 mM peptide; HEK293T/17 cells. In kind it is cell-based. How it is done: PAR4 calcium flux assays. PAR4-dependent calcium flux was measured using Fura2-QBT in platelets and HEK293T/17 cells with wild-type (WT) and mutant PAR4 (Tourdot et al., Arterioscler Thromb Vasc Biol. 2014; 34(12):2644-2650).
PAR4 mutant calcium flux assays. Using Quikchange Lightning Site-Directed mutagenesis (Agilent) per manufacturing instructions, pCMV-Flag-PAR4-S66E, pCMV-Flag-PAR4-S67E, and pCMV-Flag-PAR4-R68E were generated from mutation of pCMV-Flag-PAR4 and confirmed by sequencing (University of Utah DNA Sequencing Core). Prior to transfection, HEK293T/17 cells (ATCC CRL-11268) were seeded at 4.5×10^4/mL. The following day, cells were transfected with the plasmid of interest using Lipofectamine 2000 (Invitrogen, Carlsbad, CA, USA). Twenty-four hours after transfection, media was removed and replaced with Optimem w/Glutamax (Gibco, Carlsbad, CA, USA) containing vorapaxar (100 nM) (Cayman Chemical, Ann Arbor, MI, USA) and Fura2-QBT (Molecular Devices). Following incubation for 1 hour at 37° C., plate was placed in the Flexstation 3 (Molecular Devices) where agonists, Tyrode's Buffer, cathepsin G (2.5 μM), or α-thrombin (1.5 U/mL), were injected onto cells and calcium mobilization was monitored and recorded.

Data set [4] relates to washed platelets. The data set can be described thus: Platelet aggregation of human washed platelets. The data set is classed as cell-based. The note with it: for peptide concentration producing maximal platelet aggregation / platelet aggregation induced by peptide: washed platelets; for platelet aggregation induced by peptide: 1 mM peptide (RA-6mer 1 mM or 10 mM; AL-10mer independent of concentration). How it is done:
as §3, §4

For data set [5], the system named is mouse washed platelets. The data set can be described thus: Platelet aggregation of mouse washed platelets. The conditions noted are these: 1 U/mL human thrombin, 1 μM human CatG or 1 mM RA-11mer. The data set is classed as cell-based.
Description: as §1, §2, §3

In data set [6] the test system is rat washed platelets. The data set can be described thus: Platelet aggregation of rat washed platelets. The data set is classed as cell-based. The note with it: 1 U/mL human thrombin, 1 μM human CatG or 1 mM RA-11mer. How it is done: as §2, §3
In data set [7] the test system is washed platelets. The data set can be described thus: Platelet calcium flux assay. The data set is classed as cell-based, human. The note with it: CatG 500 nM; for platelet calcium flux: peptides 2 mM, FURA2-AM loaded washed platelets. How it is done: Platelet calcium flux assay. Washed platelets were incubated at 37° C. for 1 hour in Tyrode's buffer (supplemented with pgel and heparin) with Fura-2AM (final concentration 2 μM). Platelets were washed and resuspended to a final concentration of 4×10^8/mL. Platelets were dispensed into a Costar 96-well half area clear bottom plate and placed in the Flexstation 3 (Molecular Devices) where cathepsin G (500 nM), buffer, or peptides (2 mM) were injected onto cells and calcium flux monitored.
as §4

Data set [8] concerns the target T2, PAR-1 (Homo sapiens, UniProt P25116).
T2 construct: endogenous in cells; host or cells: human washed platelets
T2 sequence (P25116 22-425): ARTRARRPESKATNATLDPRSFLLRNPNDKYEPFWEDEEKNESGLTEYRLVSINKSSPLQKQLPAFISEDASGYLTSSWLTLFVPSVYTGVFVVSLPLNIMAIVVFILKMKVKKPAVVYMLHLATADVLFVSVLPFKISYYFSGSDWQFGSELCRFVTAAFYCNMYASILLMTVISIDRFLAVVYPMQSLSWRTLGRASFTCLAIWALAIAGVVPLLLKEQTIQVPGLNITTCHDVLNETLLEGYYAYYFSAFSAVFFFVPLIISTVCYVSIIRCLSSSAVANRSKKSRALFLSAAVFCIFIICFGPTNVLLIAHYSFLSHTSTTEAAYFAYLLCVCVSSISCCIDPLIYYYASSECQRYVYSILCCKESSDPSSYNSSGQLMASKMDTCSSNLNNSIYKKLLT
The data set can be described thus: Antagonist study: PAR-1 inhibitor in platelet aggregation. In kind it is cell-based. The note with it: 100 nM VPX.
Description: Human washed platelets were prepared and resuspended in Tyrode's Buffer at 2×10^8/mL as described (Edelstein et al., Nat Med. 2013; 19(12):1609-1616). […] Platelet aggregation was measured under stirring conditions at 37° C. using a PAP-8E aggregometer after treatment with the following agonists: arachidonic acid (Bio/Data Corporation, Horsham, PA, USA), cathepsin G, elastase, proteinase 3 (Athens Research Group), α-thrombin (Sigma, St. Louis, MO, USA), PAR-1 peptide (SFLLRN) (GL Biochem, China).
Antagonist Studies. Washed platelets were incubated for 15 minutes at 37° C. with PAR-4 blocking antibody RC3 (100 μg/mL) (generous gift from Regeneron Pharmaceuticals; French et al., Blood Adv. 2018; 2(11): 1283-1293), PAR-1 inhibitor vorapaxar (100 nM), and/or PAR-4 inhibitor BMS-986120 (400 nM) (Cayman Chemical, Ann Arbor, MI, USA).

A short description of data set [9]: Ability of peptide to go into solution. The data set is classed as physicochemical. The conditions noted are these: numerous attempts with different solvents. An excerpt: Having said that, perhaps the hydrophobic portion of the C-terminus of RALLLGWVPTR (SEQ ID NO: 1) stabilizes the tethered ligand on the platelet plasma membrane.

No end group written: not given here.

For the molecule “RALLLGWVPTR (RALLLGWVPTR-NH2) [synthetic peptide representing the CatG-generated PAR4 tethered ligand]”, the “platelet aggregation, species comparison: dogs” value in [1] is “induced aggregation”. In data set [2], the “granule release (P-selectin expression)” value is listed as “increased” and the “integrin activation (PAC-1 binding)” value is “increased”. Further, the “calcium flux in HEK cells transfected with WT PAR4 compared with mock” value in [3] is “induced calcium flux”. The “platelet aggregation, species comparison: humans” value in data set [4] (1 U/mL human thrombin, 1 μM human CatG or 1 mM RA-11mer) is “induced aggregation”. Further, the “potency as activator of PAR4, comparison” value in data set [4] (from platelet aggregation data) is listed as “more potent activator of PAR4 than the thrombin-generated tethered ligand”. Further, in [4], the “peptide concentration producing maximal platelet aggregation” value is reported as 1 mM and the “platelet aggregation induced by peptide” value was “increased”. Further, the “platelet aggregation, species comparison: mice” value in [5] was “induced aggregation only in humans and dogs”. Also, the “platelet aggregation, species comparison: rats” value in data set [6] was “induced aggregation only in humans and dogs”. The “peak platelet calcium flux, CatG compared with RALLLGWVPTR” value in data set [7] (RA-11mer 2 mM) is “similar”. In data set [7], the platelet calcium flux entry was “significant and sustained calcium flux”.

Take “ALLLGWVPTR (ALLLGWVPTR-NH2) [10-mer PAR4 Tethered Ligand Fragment]”: the “platelet aggregation induced by peptide” value in data set [4] was “no discernable platelet aggregation”. For the same molecule, the platelet calcium flux result in data set [7] was “no discernable”.

Take “RALLLG-NH2 [6mer from the CatG tethered ligand]”: the “platelet aggregation induced by peptide” value in data set [4] is listed as “not able to induce platelet aggregation”.

For “GYPGQV-NH2 [the thrombin-generated PAR4 tethered ligand, reference compound]”, in data set [4], the “peptide concentration producing maximal platelet aggregation” value was found to be 6 mM.

Turning to `CCOC(=O)N[C@@H]1CC[C@@H]2[C@@H](C1)C[C@H]1C(=O)O[C@H](C)[C@H]1[C@H]2/C=C/c1ccc(-c2cccc(F)c2)cn1` [VPX, vorapaxar], the “effect on thrombin-induced platelet aggregation” value in [8] (0.1 U/mL thrombin) is on record as “abolished”. Besides, the “effect on PAR1 activation by PAR1 activation peptide” value in data set [8] (SFLLRN 10 μM) is “efficiently ablated PAR1 activation”.

Turning to “RALLLGWV [RALLLGWV 8mer, 8-mer PAR4 Tethered Ligand Fragment, intermediate length peptide]”, the “ability to go into solution” value in [9] is listed as “inability to go into solution”.
